The values that follow come from patent US10065972B2, “Bicyclic or tricyclic heterocyclic compound” (MITSUBISHI TANABE PHARMA CORPORATION, priority 2014, dated 2018).

Chain of human recombinant KAT-II (Q8N5Z0 30-425): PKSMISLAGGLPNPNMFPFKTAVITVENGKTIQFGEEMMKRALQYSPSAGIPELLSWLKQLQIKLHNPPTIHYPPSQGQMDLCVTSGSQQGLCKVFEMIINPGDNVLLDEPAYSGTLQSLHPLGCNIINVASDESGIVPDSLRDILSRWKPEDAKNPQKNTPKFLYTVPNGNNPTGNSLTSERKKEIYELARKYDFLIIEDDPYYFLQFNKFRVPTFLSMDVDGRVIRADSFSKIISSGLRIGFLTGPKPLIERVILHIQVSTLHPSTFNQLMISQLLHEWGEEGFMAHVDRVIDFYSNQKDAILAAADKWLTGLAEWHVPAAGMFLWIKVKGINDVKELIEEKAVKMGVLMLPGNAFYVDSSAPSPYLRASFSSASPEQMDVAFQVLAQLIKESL

This assay addresses human recombinant KAT-II (Homo sapiens (Human), UniProt Q8N5Z0). Kind of assay: KAT-II inhibitory test. The format is biochemical. To be noted: 3.0 μmol/L kynurenine, 37° C., 1 hr, pH 8.0; kynurenic acid quantified by HPLC. The procedure, abridged: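 E. coli-expressed His/MBP-tagged human KAT-II (2.0 ng/μL) incubated with 3.0 μmol/L kynurenine and 10 μmol/L pyridoxal phosphate in Tris-acetate pH 8.0, 1 hr at 37 °C. Reaction stopped with TCA. Kynurenic acid quantified by reversed-phase HPLC with fluorescence detection (ex 354/em 460 nm), duplicate at each concentration.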
By IC50 is commonly meant the midpoint of a concentration-inhibition curve. Turning to `C[C@@H](NC(=O)[C@H]1CCCN1c1nc2c(=O)[nH]c(-c3ccc(F)cc3F)nc2s1)c1ccccc1` [Example 499, (R)-1-[5-(2,4-difluorophenyl)-7-oxo-6,7-dihydro[1,3]thiazolo[5,4-d]pyrimidin-2-yl]N-((R)-1-phenylethyl)pyrrolidine-2-carboxamide], the 50% inhibitory concentration (IC50) was 7.1 nM. Take `Cc1ccc(-c2nc3sc(N4CCC[C@@H]4C(=O)NCc4ccccc4)nc3c(=O)[nH]2)s1` [Example 500, (R)-N-benzyl-1-[5-(5-methylthiophen-2-yl)-7-oxo-6,7-dihydro[1,3]thiazolo[5,4-d]pyrimidin-2-yl]pyrrolidine-2-carboxamide]: the IC50 came out at 41 nM. The figure for `Cc1cc(F)c(-c2nc3sc(N4CCC[C@@H]4C(=O)NCc4ccccc4)nc3c(=O)[nH]2)s1` [Example 501, (R)-N-benzyl-1-[5-(3-fluoro-5-methylthiophen-2-yl)-7-oxo-6,7-dihydro[1,3]thiazolo[5,4-d]pyrimidin-2-yl]pyrrolidine-2-carboxamide] is 17 nM; for `O=C(NCc1ccccc1)[C@H]1CCCN1c1nc2c(=O)[nH]c(C(F)(F)c3ccccc3)nc2s1` [Example 524, (R)-N-benzyl-1-{5-[difluoro(phenyl)methyl]-7-oxo-6,7-dihydro[1,3]thiazolo[5,4-d]pyrimidin-2-yl}pyrrolidine-2-carboxamide] it is 4 nM. For the compound `O=C(NCc1ccccc1)[C@H]1CCCN1c1nc2c(=O)[nH]c(C(F)(F)CCS(=O)(=O)c3ccccc3)nc2s1` [Example 530, (R)-N-benzyl-1-[5-(3-benzenesulfonyl-1,1-difluoropropyl)-7-oxo-6,7-dihydro-[1,3]thiazolo[5,4-d]pyrimidin-2-yl]pyrrolidine-2-carboxamide], the IC50 came to 19 nM. Turning to `C[C@H](C(=O)NCc1ccccc1)N(C)c1nc2c(=O)[nH]c(-c3ccccc3F)nc2s1` [Example 532, (R)-N-benzyl-2-{N′-[5-(2-fluorophenyl)-7-oxo-6,7-dihydro[1,3]thiazolo[5,4-d]pyrimidin-2-yl]-N′-methylamino}propionamide], the IC50 turned out to be 17 nM.

On to `O=C(NCc1ccccc1)[C@H]1CCCN1c1nc2c(=O)[nH]c(C(F)(F)F)nc2s1` [Example 536, (R)-N-benzyl-1-(7-oxo-5-trifluoromethyl-6,7-dihydro[1,3]thiazolo[5,4-d]pyrimidin-2-yl)pyrrolidine-2-carboxamide], for which the concentration for half-maximal inhibition (IC50) was 6.9 nM. Under `O=C(NCc1ccccc1)[C@H]1CCCN1c1nc2c(=O)[nH]c(C(F)F)nc2s1` [Example 539, (R)-N-benzyl-1-(5-difluoromethyl-7-oxo-6,7-dihydro[1,3]thiazolo[5,4-d]pyrimidin-2-yl)pyrrolidine-2-carboxamide] stands 22 nM. The figure for `O=C(NCc1ccccc1)[C@H]1CCCN1c1nc2c(=O)[nH]c(N3CCC[C@H]3C(F)(F)F)nc2s1` [Example 553, (R)-N-benzyl-1-{7-oxo-5-[(S)-2-(trifluoromethyl)pyrrolidin-1-yl]-6,7-dihydro[1,3]thiazolo[5,4-d]pyrimidin-2-yl}pyrrolidine-2-carboxamide] is 43 nM; for `O=C(NCc1ccccc1)[C@H]1CCCN1c1nc2c(=O)[nH]c(OCC(F)(F)F)nc2s1` [Example 555, (R)-N-benzyl-1-[7-oxo-5-(2,2,2-trifluoroethoxy)-6,7-dihydro[1,3]thiazolo[5,4-d]pyrimidin-2-yl]pyrrolidine-2-carboxamide] it is 1100 nM; for `COCc1nc2sc(N3CCC[C@@H]3C(=O)NCc3ccccc3)nc2c(=O)n1C1CCOCC1` [Example 565, (R)-N-benzyl-1-[5-methoxymethyl-7-oxo-6-(tetrahydro-2H-pyran-4-yl)-6,7-dihydro[1,3]thiazolo[5,4-d]pyrimidin-2-yl]pyrrolidine-2-carboxamide] it is 10 nM. The figure for `Cn1c(C2CC2)nc2sc(N3CC(F)(F)C[C@@H]3C(=O)NCc3ccccc3)nc2c1=O` [Example 572, (R)-N-benzyl-1-(5-cyclopropyl-6-methyl-7-oxo-6,7-dihydro[1,3]thiazolo[5,4-d]pyrimidin-2-yl)-4,4-difluoropyrrolidine-2-carboxamide] is 86 nM; for `Cn1c(C2(C#N)CC2)nc2sc(N3CCC[C@@H]3C(=O)NCc3ccccc3)nc2c1=O` [Example 573, (R)-N-benzyl-1-[5-(1-cyanocyclopropyl)-6-methyl-7-oxo-6,7-dihydro[1,3]thiazolo[5,4-d]pyrimidin-2-yl]pyrrolidine-2-carboxamide] it is 35 nM. Consider `CCc1nc2sc(N3CCC[C@@H]3C(=O)COc3ccccc3)nc2c(=O)n1C` [Example 575, 5-ethyl-6-methyl-2-[(R)-2-(2-phenoxyacetyl)pyrrolidin-1-yl][1,3]thiazolo[5,4-d]pyrimidin-7(6H)-one], for which the IC50 was determined as 19 nM. The figure for `COC1CN(c2nc3sc(N4CCC[C@@H]4C(=O)COc4ccccc4)nc3c(=O)n2C)C1` [Example 578, 5-(3-methoxyazetidin-1-yl)-6-methyl-2-[(R)-2-(2-phenoxyacetyl)pyrrolidin-1-yl][1,3]thiazolo[5,4-d]pyrimidin-7(6H)-one] is 28 nM; for `CCc1nc2sc(N3CCC[C@@H]3C(=O)CNc3ccccc3)nc2c(=O)n1C` [Example 579, 5-ethyl-6-methyl-2-[(R)-2-(2-phenylaminoacetyl)pyrrolidin-1-yl][1,3]thiazolo[5,4-d]pyrimidin-7(6H)-one] it is 10 nM; for `O=C(NCc1ccccc1)[C@H]1CCCN1c1nc2c(=O)[nH]c(-c3c(F)cccc3F)nc2s1` [Example 583, (R)-N-benzyl-1-[5-(2,6-difluorophenyl)-7-oxo-6,7-dihydro[1,3]thiazolo[5,4-d]pyrimidin-2-yl]pyrrolidine-2-carboxamide] it is 9 nM. In the case of `Cc1noc(-c2nc3sc(N4CCC[C@@H]4C(=O)NCc4ccccc4)nc3c(=O)[nH]2)n1` [Example 585, (R)-N-benzyl-1-[5-(3-methyl-[1,2,4]oxadiazol-5-yl)-7-oxo-6,7-dihydro[1,3]thiazolo[5,4-d]pyrimidin-2-yl]pyrrolidine-2-carboxamide], the IC50 worked out at 12 nM.

Turning to `CN1CCn2c(nc3sc(N4CCC[C@@H]4C(=O)NCc4ccccc4)nc3c2=O)C1` [Example 590, (R)-N-benzyl-1-(6-methyl-10-oxo-5,7,8,10-tetrahydro-6H-pyrazino[1,2-a][1,3]thiazolo[5,4-d]pyrimidin-2-yl)pyrrolidine-2-carboxamide], the concentration for half-maximal inhibition (IC50) came out at 280 nM. Consider `O=C(NCc1ccccc1)[C@H]1CCCN1c1nc2c(=O)n3c(nc2s1)CN(CC(F)F)CC3` [Example 593, (R)-N-benzyl-1-[6-(2,2-difluoroethyl)-10-oxo-5,7,8,10-tetrahydro-6H-pyrazino[1,2-a][1,3]thiazolo[5,4-d]pyrimidin-2-yl]pyrrolidine-2-carboxamide], for which the concentration for half-maximal inhibition (IC50) was 51 nM.

For the compound `C[C@@H]1CN(C)Cc2nc3sc(N4CCC[C@@H]4C(=O)NCc4ccccc4)nc3c(=O)n21` [Example 601, (R)-N-benzyl-1-[(R)-6,8-dimethyl-10-oxo-5,7,8,10-tetrahydro-6H-pyrazino[1,2-a][1,3]thiazolo[5,4-d]pyrimidin-2-yl]pyrrolidine-2-carboxamide], the IC50 turned out to be 140 nM. `CN1CCn2c1nc1sc(N3CCC[C@@H]3C(=O)NCc3ccccc3)nc1c2=O` [Example 602, (R)-N-benzyl-1-(5-methyl-9-oxo-5,6,7,9-tetrahydroimidazo[1,2-a][1,3]thiazolo[5,4-d]pyrimidin-2-yl)pyrrolidine-2-carboxamide]: the half-maximal inhibitory concentration (IC50) is 31 nM. For the compound `O=C(NCc1ccccc1)[C@H]1CCCN1c1nc2c(=O)n3c(nc2s1)C(F)(F)CCC3` [Example 605, (R)-N-benzyl-1-(5,5-difluoro-10-oxo-5,7,8,10-tetrahydro-6H-pyrido[1,2-a][1,3]thiazolo[5,4-d]pyrimidin-2-yl)pyrrolidine-2-carboxamide], the IC50 came out at 8.2 nM.

In the case of `CC(C)(O)c1nc2sc(N3CCC[C@@H]3C(=O)NCc3ccccc3)nc2c(=O)[nH]1` [Example 606, (R)-N-benzyl-1-[5-(2-hydroxypropan-2-yl)-7-oxo-6,7-dihydro[1,3]thiazolo[5,4-d]pyrimidin-2-yl]pyrrolidine-2-carboxamide], the half-inhibitory concentration (IC50) is 7.6 nM. Turning to `Cn1c(-c2ccccc2)nc2sc(N3CC[C@@H](N)[C@@H]3C(=O)NCc3ccccc3)nc2c1=O` [Example 611, (2R,3R)-3-amino-N-benzyl-1-(6-methyl-7-oxo-5-phenyl-6,7-dihydro[1,3]thiazolo[5,4-d]pyrimidin-2-yl)pyrrolidine-2-carboxamide], the IC50 was 570 nM. As to `CCc1nn(CC)c(=O)c2nc(N3CCC[C@@H]3C(=O)NCc3ccccc3)sc12` [Example 612, (R)-N-benzyl-1-(5,7-diethyl-4-oxo-4,5-dihydro[1,3]thiazolo[4,5-d]pyridazin-2-yl)pyrrolidine-2-carboxamide], the IC50 turned out to be 52 nM. The figure for `CCc1nn(C2CCOCC2)c(=O)c2nc(N3CCC[C@@H]3C(=O)NCc3ccccc3)sc12` [Example 613, (R)-N-benzyl-1-[7-ethyl-4-oxo-5-(tetrahydro-2H-pyran-4-yl)-4,5-dihydro[1,3]thiazolo[4,5-d]pyridazin-2-yl]pyrrolidine-2-carboxamide] is 22 nM; for `CCn1nc(C2CC2)c2sc(N3CCC[C@@H]3C(=O)NCc3ccccc3)nc2c1=O` [Example 614, (R)-N-benzyl-1-(7-cyclopropyl-5-ethyl-4-oxo-4,5-dihydro[1,3]thiazolo[4,5-d]pyridazin-2-yl)pyrrolidine-2-carboxamide] it is 16 nM. With `Cc1nn(C2CCCCC2)c(=O)c2nc(N3CCC[C@@H]3C(=O)NCc3ccccc3)sc12` [Example 616, (R)-N-benzyl-1-(5-cyclohexyl-7-methyl-4-oxo-4,5-dihydro[1,3]thiazolo[4,5-d]pyridazin-2-yl)pyrrolidine-2-carboxamide], the IC50 stood at 73 nM.

Turning to `O=C(NCc1ccccc1)[C@H]1CCCN1c1nc2c(=O)[nH]cc(C(F)(F)F)c2s1` [Example 617, (R)-N-benzyl-1-(4-oxo-7-trifluoromethyl-4,5-dihydro[1,3]thiazolo[4,5-c]pyridin-2-yl)pyrrolidine-2-carboxamide], the half-maximal inhibitory concentration (IC50) worked out at 240 nM.
